According to patent US9364438B2, “Process for producing solid particles” (Takeda Pharmaceutical Company Limited, priority 2012, dated 2016):

Assay: Microscopic observation of precipitated resatorvid crystals (poor solvent crystallization)
Format: physicochemical
Details: microscope
Procedure: Resatorvid (10 mg) was dissolved in methanol (0.5 mL) to prepare a methanol solution of resatorvid. The solution was added dropwise to water (5 mL) for injection with stirring at 600 rpm to allow precipitation of resatorvid crystal. The crystal was recovered, and vacuum dried at 50° C. for 24 hr. The obtained crystal was observed under a microscope.
In the same manner as in Comparative Example 1 except that water for injection containing nanobubbles produced under the above-mentioned conditions was used instead of water for injection, resatorvid crystal was obtained. The obtained crystal was observed under a microscope.
Resatorvid (10 mg) was dissolved in methanol (0.5 mL) to prepare a methanol solution of resatorvid. Polysorbate 80 (2 mg) was dissolved in water for injection (10 mL) to prepare aqueous polysorbate 80 solution. The aforementioned resatorvid solution (0.5 mL) was added dropwise to water (10 mL) for injection with stirring at 600 rpm to allow precipitation of resatorvid crystal. The crystal was recovered, and vacuum dried at 50° C. for 24 hr. The obtained crystal was observed under a microscope.
In the same manner as in Comparative Example 2 except that water for injection containing nanobubbles produced under the above-mentioned conditions was used instead of water for injection, resatorvid crystal was obtained. The obtained crystal was observed under a microscope.

| average maximum length of each crystal particle (poor solvent nanobubble water, compared with conventional water for injection (Comparative Example 1), FIG. 1 vs FIG. 2) | average maximum length of each crystal particle (poor solvent aqueous polysorbate 80 nanobubble solution, compared with conventional aqueous polysorbate 80 solution (Comparative Example 2)) | SMILES |
| --- | --- | --- |
| smaller average maximum length | – | CCOC(=O)C1=CCCC[C@H]1S(=O)(=O)Nc1ccc(F)cc1Cl [Example 1, ethyl (6R)-6-[(2-chloro-4-fluoroanilino)sulfonyl]-1-cyclohexene-1-carboxylate] |
| – | smaller average maximum length | CCOC(=O)C1=CCCC[C@H]1S(=O)(=O)Nc1ccc(F)cc1Cl [Example 2, ethyl (6R)-6-[(2-chloro-4-fluoroanilino)sulfonyl]-1-cyclohexene-1-carboxylate] |
